Reference: the supplement of paper PMC11208160

Assay: recombinant barcode read abundance after kanamycin selection (control-corrected) (log10(CPM+1)); higher = more efficient recombination; sequences stand for … in AGTGCAGAGAAAATCGGCCAGTTTTCTCTGCCTGCAGTCCGCATGCCGT…AGATTTATGCAGCGGACTGCCTTTCTCCCAAAGTGATAAACCGGACAGTATCATGGACCGGTTTTCCCGGTAATCCGTATTTGCAAGGTTGGTTTCACT; site = the 11-nt target
How it was run: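 Values are log10(CPM+1) from a pooled E. coli screen of targets paired with IS621 bridge RNA target-binding loops. Recombination efficiency here means counts per million of recombinant-junction barcodes, averaged and control-corrected. Plates were chloramphenicol/ampicillin LB agar for the control and chloramphenicol/ampicillin/kanamycin with 0.1 mM IPTG, two replicates each.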
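Note: IS621 recombinase and bridge RNA in Escherichia coli cells.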

Sequence | recombinant barcode read abundance (log10)
CTAAGCTCTTGGGTTCTAACCTGTTGCTT (site CTAAGCTCTCA) | 0.133
AGCCATCCTTGGGTTCTAACCTGTTGCAT (site TGCCATCCTAT) | 0.0638
GACTTGTCTTGGGTTCTAACCTGTTGCCT (site GACTTGTCTAG) | 1.41
CTCTCTTCTTGGGTTCTAACCTGTTGCCT (site CTCTCTCCTAG) | 0.0216
CTCTAGACTTGGGTTCTAACCTGTTGCTG (site CTCAAGACTCC) | 0.0495
CTACAATCTTGGGTTCTAACCTGTTGCCT (site GTACAATCTAG) | 0.0211
ACCGAGACTTGGGTTCTAACCTGTTGCCT (site ACCGCGACTAG) | 0.113
CTAGACTCTTGGGTTCTAACCTGTTGCAA (site CTAGACTCTGT) | 0.0566
AGTGAATCTTGGGTTCTAACCTGTTGCCT (site AGAGAATCTAG) | 0.13
ACAGAGACTTGGGTTCTAACCTGTTGCAC (site ACAGAGACTTA) | 0.183
CACCTGACTTGGGTTCTAACCTGTTGCCG (site CACCTGTCTCG) | 0.0187
AAGGTGTCTTGGGTTCTAACCTGTTGCCT (site AACGTGTCTAG) | 0.736
CGTATATCTTGGGTTCTAACCTGTTGCCT (site CGTGTAACTAG) | 0.0247
ACACTAACTTGGGTTCTAACCTGTTGCCT (site AGACTAACTAG) | 0.0933
GTCGGAGCTTGGGTTCTAACCTGTTGCCG (site GTCGGAGCTCG) | 0.218
TCCCATGCTTGGGTTCTAACCTGTTGCCT (site TCCCATACTAG) | 0.19
GCACGAACTTGGGTTCTAACCTGTTGCCT (site GCCCGAACTAG) | 0.133
GAATGGACTTGGGTTCTAACCTGTTGCGA (site CTCATATCTAA) | 0.0913
GGACGGCCTTGGGTTCTAACCTGTTGCCT (site GGACGTCCTAG) | 0
TCGATCACTTGGGTTCTAACCTGTTGCCT (site TCGATCACTAG) | 0.738
TAAGCCTCTTGGGTTCTAACCTGTTGCTG (site TAAGCCTCTCA) | 2.54
GTAAAACCTTGGGTTCTAACCTGTTGCCT (site CTAAAACCTAG) | 0.23

Sequence | recombinant barcode read abundance (log10)
ATAGCGACTTGGGTTCTAACCTGTTGCCT (site ATAGCCACTAG) | 0.13
TAGCATGCTTGGGTTCTAACCTGTTGCAC (site TAGCATGCTGT) | 0.978
CCGCCTGCTTGGGTTCTAACCTGTTGCCT (site CCGCCAGCTAG) | 0.293
CTAAGCGCTTGGGTTCTAACCTGTTGCCA (site CTAAGTGCTTG) | 0.0786
ACTAATCCTTGGGTTCTAACCTGTTGCTT (site CCTAATACTAA) | 0.105
TAGGGCACTTGGGTTCTAACCTGTTGCTA (site TAGGGCACTTA) | 1.44
CGTCAGCCTTGGGTTCTAACCTGTTGCCT (site CGTCAGCCTAG) | 0.22
AGAACTACTTGGGTTCTAACCTGTTGCCA (site AGAACTACTTG) | 0.0417
GTCAAACCTTGGGTTCTAACCTGTTGCTG (site GTCAACCCTCA) | 0.232
CTAGATTCTTGGGTTCTAACCTGTTGCAT (site ACGATAACTTG) | 0.0921
GAGCGCTCTTGGGTTCTAACCTGTTGCTA (site GAGCGCTCTGA) | 0.12
ACAGGATCTTGGGTTCTAACCTGTTGCTT (site ACAGAATCTAG) | 0.55
CAAGTCGCTTGGGTTCTAACCTGTTGCCT (site CAAGTGGCTAG) | 0.458
GTCATGTCTTGGGTTCTAACCTGTTGCTG (site ACAGGTCCTTC) | 0.0358
TACTGATCTTGGGTTCTAACCTGTTGCCT (site TAGTGATCTAG) | 0.0404
CACCCTACTTGGGTTCTAACCTGTTGCCT (site AACCCTACTAG) | 0.04
CGCCACACTTGGGTTCTAACCTGTTGCCT (site CGCCACACTAG) | 0.296
TCTCTCGCTTGGGTTCTAACCTGTTGCCT (site TCTCTCGCTAG) | 0.47
CGAACCTCTTGGGTTCTAACCTGTTGCCG (site CGAACCTCTCG) | 0.903
TTGGCGACTTGGGTTCTAACCTGTTGCCA (site TTGTCGACTTG) | 0.0276
CATTAACCTTGGGTTCTAACCTGTTGCCT (site CATTAACCTAG) | 1.15
GGCCGGACTTGGGTTCTAACCTGTTGCCT (site GGCCGGACTAG) | 0.937

Sequence | recombinant barcode read abundance (log10)
CGGGGTCCTTGGGTTCTAACCTGTTGCTA (site CGGCGTCCTTA) | 0.41
GGTCATTCTTGGGTTCTAACCTGTTGCCT (site GGTCATGCTAG) | 0.0124
TTACATGCTTGGGTTCTAACCTGTTGCCT (site TTACATGCTAG) | 1.27
TCTAACCCTTGGGTTCTAACCTGTTGCGG (site TCAAACCCTCC) | 0.332
ATGAACCCTTGGGTTCTAACCTGTTGCGT (site TTGAACCCTAC) | 0.659
TAGGGTTCTTGGGTTCTAACCTGTTGCGG (site CAGGGTCCTCC) | 0.0906
TGACTCTCTTGGGTTCTAACCTGTTGCCT (site TAACTCTCTAG) | 0.163
TATGGAGCTTGGGTTCTAACCTGTTGCTG (site TATGGAGCTCA) | 1.58
AGCTTAGCTTGGGTTCTAACCTGTTGCCA (site AGCTTAGCTGG) | 0.463
GCTGAGGCTTGGGTTCTAACCTGTTGCTG (site TCTGAGTCTCA) | 0.256
GAATATTCTTGGGTTCTAACCTGTTGCTT (site GAATATTCTAA) | 0.206
GGATGGACTTGGGTTCTAACCTGTTGCTT (site GGATAGCCTAA) | 0.0315
AAAGTACCTTGGGTTCTAACCTGTTGCCT (site TAAGTACCTAG) | 1.16
ACTAGGACTTGGGTTCTAACCTGTTGCGA (site ACTAGGACTGC) | 0.0331
AACATTCCTTGGGTTCTAACCTGTTGCCT (site GACATTCCTAG) | 0.355
TCTAACCCTTGGGTTCTAACCTGTTGCGG (site TCTAACCCTCC) | 1.09
TAATTGTCTTGGGTTCTAACCTGTTGCGT (site TAATTGTCTAC) | 2.45
AGGCGTCCTTGGGTTCTAACCTGTTGCCT (site AGGCGTCCTAG) | 1.44
CCAGATTCTTGGGTTCTAACCTGTTGCCT (site CGAGATTCTAG) | 0.297
GGTAGGACTTGGGTTCTAACCTGTTGCCT (site CGTAGGACTAG) | 0.0936
ATCTTACCTTGGGTTCTAACCTGTTGCCG (site ATCTTACCTCG) | 0.448
GTGGTAACTTGGGTTCTAACCTGTTGCCT (site GTGGTAACTAG) | 0.647

Sequence | recombinant barcode read abundance (log10)
GTTTGTTCTTGGGTTCTAACCTGTTGCCT (site GTTTGCTCTAG) | 0.0623
CGTAAGACTTGGGTTCTAACCTGTTGCCT (site CGTCAGACTAG) | 0.265
GACACAGCTTGGGTTCTAACCTGTTGCCT (site GAAACAGCTAG) | 0.145
ACTCGGCCTTGGGTTCTAACCTGTTGCGT (site ACTCGGCCTAG) | 0.0703
ACCAACACTTGGGTTCTAACCTGTTGCTT (site ACCAACACTAA) | 0.115
GCGTCCACTTGGGTTCTAACCTGTTGCTA (site GCGTGCCCTTA) | 0.299
CCTGAATCTTGGGTTCTAACCTGTTGCCT (site CCTGATTCTAG) | 0.073
TATAATACTTGGGTTCTAACCTGTTGCGA (site TATAATACTTC) | 0.32
GGGGCCTCTTGGGTTCTAACCTGTTGCTT (site GGGGCTTCTAA) | 0.398
CGACACACTTGGGTTCTAACCTGTTGCCT (site CGTCACACTAG) | 0.0536
GAAATTCCTTGGGTTCTAACCTGTTGCCT (site GAAATTCCTAG) | 0.371
ACTTTGCCTTGGGTTCTAACCTGTTGCCT (site ACTTTGCCTAG) | 0.953
CTACTAGCTTGGGTTCTAACCTGTTGCAG (site CTACTAGCTTT) | 0.0541
TGTTCCTCTTGGGTTCTAACCTGTTGCCT (site TGTTCCTCTAG) | 0.106
GGACCTCCTTGGGTTCTAACCTGTTGCGT (site GGACCTCCTAA) | 0.503
GAACGACCTTGGGTTCTAACCTGTTGCTT (site GAACGACCTAA) | 0.613
GGGCTGTCTTGGGTTCTAACCTGTTGCTT (site GGGCTGTCTAA) | 0.705
CTAAGAACTTGGGTTCTAACCTGTTGCGT (site CTAAGAACTAT) | 0.615
CTGTGCCCTTGGGTTCTAACCTGTTGCCT (site CTGAGCCCTAG) | 0.105
AGTACTACTTGGGTTCTAACCTGTTGCCT (site ATTACTACTAG) | 0.162
